Reference: patent US10329336B2, “Antimicrobial kinocidin compositions and methods of use” (LA Biomedical Research Institute at Harbor-UCLA Medical …, priority 2006, dated 2019)

Columns and labels:
C. albicans ATCC 36082 = assay: Solution-phase microbicidal assay; type: cell-based, Candida albicans
Procedure: One million CFU of the indicated microorganism per milliliter were incubated with peptide (0.00125-20.0 nmol/ml) in either MES (2.0 mM, pH 5.5) or PIPES (10.0 mM, pH 7.5) for one hour at 37° C. Surviving CFU were enumerated and are described as change in the initial log 10 CFU. ∘, S. aureus ATCC 27217; ●, S. typhimurium strain 5990s; □, C. albicans ATCC 36082. Data are means±SD (minimum n=2).
(§1) Briefly, the antimicrobial assays were performed against a panel of prototype human pathogens as previously detailed (Yoshimura, T., Matsushima, K., Tanaka, S., Robinson, E. A., Appella, E., Oppenheim, J. J. & Leonard, E. J. (1987) Proc Natl Acad Sci USA 84, 9233-7): Staphylococcus aureus (ATCC 27217; Gram-positive bacterium); Salmonella typhimurium (5996s; Gram-negative bacterium); and the fungus Candida albicans (ATCC 36082). Defensin HNP-1 was included in each assay as an internal control, and all assays were conducted a minimum of two independent times. Results of independent assays were analyzed using Wilcoxon Rank Sum analysis with Bonferroni correction for multiple comparisons.
To characterize IL-8's antimicrobial activity in more detail, a quantitative solution-phase assay was carried out at pH 5.5 and 7.5. Organisms were prepared and adjusted to 10^6 CFU/ml in PIPES or MES buffer as above but lacking agarose, and dispensed (5×10^4 CFU per 50 μl aliquot). Peptide (concentration range, 20-0.00125 nmol/ml) was introduced into the assay medium, and incubated for 1 hour at 37° C. After incubation, media were serially diluted and plated in triplicate for enumeration. […] IL-8 was also fungicidal for C. albicans at pH 7.5, with a 2-log reduction in surviving CFU over 1 hour at a concentration of 2.5 nmol/ml.

[1] = tested on: Staphylococcus aureus (ATCC 27217); assay: Solid-phase antimicrobial assay of kinocidins; type: cell-based; conditions: S. aureus (Gram-positive); pH 5.5 or 7.5, not separated; 0.5 nmol/well
Procedure: (§2) Peptides (0.5 nmol) were introduced into wells in agarose plates buffered with MES (2.0 mM, pH 5.5) or PIPES (10.0 mM, pH 7.5). Antimicrobial activity was assessed as the zone of complete (blue) or partial (red) inhibition around the well. Abbreviations are: Native IL-8 (IL-8); IL-8α, (α); IL-8γ, (γ); IL-8α+IL-8γ (α+γ); RANTES, (RAN); GRO-α, (GRO); MCP-1, (MCP); lymphotactin, (LYM); platelet factor-4, (PF-4); and HNP-1, (HNP). Histograms are means±SEM (minimum n=2).
as §1
(§3) For the Solid-Phase Assay, mid-logarithmic phase organisms were prepared, introduced into buffered agarose (PIPES [10 mM, pH 7.5] or MES [2.0 mM, pH 5.5]) to achieve final inocula of 10^6 CFU/ml, and poured into plates. Peptides (0.5 nmol/well [50 nmol/ml]) were added to wells in the seeded matrix, and incubated for 3h at 37° C. Nutrient overlay medium was applied, and assays incubated at 37° C. or 30° C. for bacteria or fungi, respectively. After 24h, zones of inhibition were measured, and results recorded as zones of complete or partial inhibition.

[2] = tested on: Candida albicans (ATCC 36082); assay: Solid-phase antimicrobial assay of kinocidins; type: cell-based; conditions: C. albicans; pH 5.5 or 7.5, not separated; 0.5 nmol/well
Procedure: as §2, §1, §3

[3] = tested on: Salmonella typhimurium (5996s); assay: Solid-phase antimicrobial assay of kinocidins; type: cell-based; conditions: S. typhimurium (Gram-negative); pH 5.5 or 7.5, not separated; 0.5 nmol/well
Procedure: as §2, §1, §3

[4] = tested on: Escherichia coli strain ML-35; assay: Ex vivo biomatrix assay in human whole blood, plasma and serum; type: cell-based
Description: FIG. 18A-B show antimicrobial efficacy of IL-8α in human blood and blood-derived matrices as compared with artificial media (MHB) at pH 5.5 and 7.2. […] The E. coli inocula (INOC) were 10^5 CFU/ml, and the threshold of sensitivity was considered 0.3 log 10 CFU/ml.
To assess the physiological relevance of the observed in vitro (solid and solution-phase) antimicrobial activity for IL-8 and IL-8α, we assessed the efficacy of IL-8α in the ex vivo biomatrix assay. This assay has been developed to assess antimicrobial polypeptide efficacy in complex human blood matrices. Antimicrobial activity of IL-8α in human whole blood and homologous plasma and serum fractions was assessed (Yeaman, M. R., Gank, K. D., Bayer, A. S., and Brass, E. P. (2002) Antimicrob Agents Chemother 46, 3883-3891). For biomatrix studies, the well-characterized Escherichia coli strain ML-35 was used as the target organism (Lehrer, R. I., Barton, A., Daher, K, A., Harwig, S. S., Ganz, T., and Selsted, M. E. (1989) J Clin Invest 84, 553-561). This strain is resistant to serum, ideal for use in assessing peptide antimicrobial activity in blood and blood-derived matrices (Yeaman, M. R., Gank, K. D., Bayer, A. S., and Brass, E. P. (2002) Antimicrob Agents Chemother 46, 3883-3891). Organisms were cultured to mid-logarithmic phase in brain-heart infusion broth (Difco Laboratories, Detroit, Mich.) at 37° C., washed, and resuspended in PBS (Irvine Scientific; pH 7.2). Inocula were quantified spectrophotometrically and validated by quantitative culture. Biomatrices were distributed in 85-l aliquots into 96-well microtiter plates (Corning Glass Works, Corning, N.Y.) Peptide (5l; concentration range 1.0-50.0 μg/ml) was added either simultaneously with the microorganism (10 μl; 10^5 CFU/ml), or after a 120 min pre-incubation period in the biomatrix. The mixtures were incubated with constant agitation for 2 h at 37° C. After incubation, aliquots were diluted and quantitatively cultured in triplicate onto blood agar. Surviving organisms were enumerated as CFU/ml. […]

For “KENWVQRVVEKFLKRAENS [IL-8α, synthetic α-helix domain of IL-8 (CXCL8)]”, the “activity relative to native IL-8, by mass” value (C. albicans ATCC 36082; C. albicans, solution-phase) was 10 fold, the “reduction in surviving C. albicans” value (C. albicans ATCC 36082; pH 5.5, 0.125 nmol/ml (1.0 μg/ml), 1 hour exposure) was “five” and the “antimicrobial activity (zone of inhibition)” value [1] was “virtually indistinguishable from that of the native molecule”. The “antifungal activity (zone of inhibition)” value [2] was “virtually indistinguishable from that of the native molecule”, the “antimicrobial activity (zone of inhibition)” value [3] was “virtually indistinguishable from that of the native molecule” and the “decrease in E. coli CFU” value ([4]; 10 μg/ml peptide, human blood and blood-derived matrices, 2 h at 37° C.) was at most 5 log CFU/ml. For the same sequence, the “antimicrobial efficacy in biomatrix” value ([4]; plasma fractions or after 2 hour preincubation) was “less activity” and the “antimicrobial efficacy in biomatrix” value ([4]; whole blood and serum, co-incubation) was “Greatest efficacy”.
